This note sets out measurements from ChEMBL document CHEMBL6182910, “Design, Synthesis, and Biological Evaluation of 4-(Difluoromethyl)-1H-imidazole-5-carboxylic Acids/4-(3-Cyanophenoxy)pyrimidine-5-carboxylic Acids as P2Y1 Receptor Antagonists for Ischemic Stroke Treatment” (J Med Chem, 2025).

Assay [1] deals with Plasma. The assay can be described thus: Anti-platelet aggregation in platelet-rich plasma of male Japanese white rabbit assessed as inhibition of ADP-induced platelet aggregation preincubated for 15 mins followed by ADP addition measured up to 10 mins by Born's turbidometric method. Conditions: Oryctolagus cuniculus. The class given is functional, cell-free.
The test system of assay [2] is HT-22. Put plainly: Neuroprotective activity against H2O2-induced oxidative stress in mouse HT-22 cells assessed as cell viability at 10 uM preincubated for 2 hrs followed by H2O2 addition measured after 24 hrs by MTT assay (reference value: 55 +/- 4.6 %). The class given is functional. Conditions: for viability at 10 µM: time 26 hrs, read-out: Activity; for Activity: time 26.0 hrs. Background: Tetrazolium dyes change colour on reduction, which living cells bring about.

Activity calls are given as the source filed them. No cut-off for these calls is given here. Bounds are passed on as bounds.

Broadly, the IC50 is the concentration that inhibits the measured activity by half. `CS(=O)(=O)Nc1cccc(Oc2nc(-c3cccc(C#N)c3)ncc2C(=O)O)c1`: the IC50 in assay [1] stood at 8.08 µM. Further, the viability at 10 µM in assay [2] was found to be 79.1%.
On to `N#Cc1cccc(-c2nc(C(F)F)c(C(=O)O)n2OCc2cccnc2)c1`, for which the IC50 in assay [1] is over 10 µM. Further, the result in assay [2] was inactive.
Regarding `N#Cc1ccc(Nc2nc(-c3ccc(C#N)cc3)ncc2C(=O)O)cc1`, the IC50 in assay [1] came out at 9.99 µM. Also, the viability at 10 µM in assay [2] turned out to be 91.1%.
For `CN(C)c1nc(COn2c(-c3cccc(C#N)c3)nc(C(F)F)c2C(=O)O)cs1` the same measures were 3.71 µM and 62.4%.
For `N#Cc1ccc(COn2c(-c3cccc(C#N)c3)nc(C3CC3(F)F)c2C(=O)O)cc1` (centres undefined) the same measures were 2.88 µM and 60.1%.
`N#Cc1ccc(COn2c(-c3cccc(C#N)c3)nc(-c3cnccn3)c2C(=O)O)cc1`: in assay [1], the IC50 is 4.11 µM. In addition, in assay [2], the result was inactive.
Turning to `CCN(CC)c1nc(COn2c(-c3cccc(C#N)c3)nc(C(F)F)c2C(=O)O)cs1`, in assay [1], the IC50 was 2.71 µM. For the same molecule, the result in assay [2] was inactive.
On to `N#Cc1ccc(COn2c(-c3cccc(C#N)c3)nc(-c3cccnc3)c2C(=O)O)cc1`, for which, in assay [1], the IC50 was over 10 µM. In assay [2], the outcome was inactive.
Take `Cc1sc(N2CCOCC2)nc1COn1c(-c2cccc(C#N)c2)nc(C(F)F)c1C(=O)O`: the IC50 in assay [1] turned out to be 1.36 µM. The viability at 10 µM in assay [2] was determined as 64.6%.
Regarding `N#Cc1ccc(COn2c(-c3cccc(C#N)c3)nc(-c3cccs3)c2C(=O)O)cc1`, in assay [1], the IC50 is over 10 µM. The outcome in assay [2] was inactive.
As for `N#Cc1ccc(COc2nc(-c3ccc(C#N)cc3)ncc2C(=O)O)cc1`, the IC50 in assay [1] was over 10 µM. In addition, the viability at 10 µM in assay [2] came out at 88.2%.
In the case of `N#Cc1ccc(-c2ncc(C(=O)O)c(OCc3ccccc3C#N)n2)cc1`, the IC50 in assay [1] was over 10 µM. Also, in assay [2], the outcome was inactive.
For the molecule `N#Cc1cccc(-c2nc(C(F)F)c(C(=O)O)n2OCc2cncs2)c1`, the IC50 in assay [1] is 3.77 µM. In addition, in assay [2], the viability at 10 µM is 64.9%.
For `N#Cc1ccc(Nc2nc(-c3cccc(C#N)c3)ncc2C(=O)O)cc1` the same measures were over 10 µM and 84.9%.
Consider `N#Cc1cccc(-c2nc(C(F)F)c(C(=O)O)n2OCc2cocn2)c1`, for which the IC50 in assay [1] was 1.69 µM. Besides, the outcome in assay [2] was inactive.
In the case of `CC1(c2nc(-c3cccc(C#N)c3)n(OCc3ccc(C#N)cc3)c2C(=O)O)CC1`, the IC50 in assay [1] turned out to be 2.41 µM. For the same molecule, the viability at 10 µM in assay [2] turned out to be 88.1%.
For `N#Cc1ccc(-c2ncc(C(=O)O)c(Oc3ccccc3C#N)n2)cc1`, the concentration for half-maximal inhibition (IC50) in assay [1] was determined as 5.68 µM. The viability at 10 µM in assay [2] turned out to be 96.2%.
Consider `CCc1nc(-c2cccc(C#N)c2)n(OCc2ccc(C#N)cc2)c1C(=O)O`, for which the IC50 in assay [1] was found to be 4.09 µM. In addition, in assay [2], the viability at 10 µM was determined as 70.6%.
`CC1(c2nc(-c3cccc(C#N)c3)n(OCc3ccc(C#N)cc3)c2C(=O)O)CCC1`: the IC50 in assay [1] was 2.99 µM. The viability at 10 µM in assay [2] amounted to 72.4%.
Turning to `N#Cc1cccc(Nc2nc(-c3cccc(C#N)c3)ncc2C(=O)O)c1`, the IC50 in assay [1] stood at 7.79 µM. The outcome in assay [2] was inactive.
The like results for `N#Cc1cccc(-c2ncc(C(=O)O)c(Oc3ccccc3C#N)n2)c1` were, in that order, 3.37 µM and “inactive”.
`Cc1nc(-c2cccc(C#N)c2)nc(OCc2ccc(C#N)cc2)c1C(=O)O`: the IC50 in assay [1] is 5.02 µM. Further, the result in assay [2] was inactive.
For `N#Cc1cccc(-c2nc(C(F)F)c(C(=O)O)n2OCc2cnco2)c1`, the IC50 in assay [1] came to 2.18 µM. Further, in assay [2], the result was inactive.
With `N#Cc1cccc(COc2nc(-c3cccc(C#N)c3)ncc2C(=O)O)c1`, the IC50 in assay [1] was found to be 2.67 µM. Further, the viability at 10 µM in assay [2] came out at 80.7%.
Turning to `N#Cc1ccc(COn2c(-c3cccc(C#N)c3)nc(-c3ccccc3)c2C(=O)O)cc1`, in assay [1], the concentration for half-maximal inhibition (IC50) came to 3.33 µM. For the same molecule, the outcome in assay [2] was inactive.
For `N#Cc1cccc(-c2nc(C(F)F)c(C(=O)O)n2OCc2csc(N3CCOCC3)n2)c1`, in assay [1], the 50% inhibitory concentration (IC50) was found to be 4.7 µM. Further, the result in assay [2] was inactive.
Consider `N#Cc1ccc(-c2ncc(C(=O)O)c(Oc3cccc(C#N)c3)n2)cc1`, for which, in assay [1], the IC50 was found to be 4.36 µM. Besides, the viability at 10 µM in assay [2] stood at 98.9%.
Take `[2H]C([2H])([2H])c1nc(-c2cccc(C#N)c2)n(OCc2ccc(C#N)cc2)c1C(=O)O`: in assay [1], the IC50 turned out to be 3.43 µM. Besides, in assay [2], the viability at 10 µM worked out at 73.1%.
For `N#Cc1cccc(-c2ncc(C(=O)O)c(OCc3ccccc3C#N)n2)c1`, in assay [1], the IC50 is over 10 µM. Further, in assay [2], the viability at 10 µM is 95.8%.
In the case of `N#Cc1cccc(-c2ncc(C(=O)O)c(Nc3ccccc3C#N)n2)c1`, the concentration for half-maximal inhibition (IC50) in assay [1] was over 10 µM. Besides, the viability at 10 µM in assay [2] amounted to 81%.
As for `N#Cc1ccc(COn2c(-c3cccc(C#N)c3)nc(-c3cncs3)c2C(=O)O)cc1`, the IC50 in assay [1] worked out at 2.63 µM. The outcome in assay [2] was inactive.
Turning to `N#Cc1cccc(-c2ncc(C(=O)O)c(Oc3cccnc3)n2)c1`, the IC50 in assay [1] is over 10 µM. Besides, the viability at 10 µM in assay [2] amounted to 87.6%.
With `N#Cc1ccc(-c2ncc(C(=O)O)c(Nc3cccc(C#N)c3)n2)cc1`, the IC50 in assay [1] is over 10 µM. Further, the viability at 10 µM in assay [2] is 97.2%.
Take `N#Cc1ccc(COn2c(-c3cccc(C#N)c3)nc(C3CCCCC3)c2C(=O)O)cc1`: the IC50 in assay [1] amounted to 2.61 µM. The outcome in assay [2] was inactive.
Consider `N#Cc1ccc(COn2c(-c3cccc(C#N)c3)nc(-c3ccoc3)c2C(=O)O)cc1`, for which the IC50 in assay [1] came out at 7.61 µM. Further, the result in assay [2] was inactive.
Consider `N#Cc1ccc(COn2c(-c3cccc(C#N)c3)nc(-c3ccccn3)c2C(=O)O)cc1`, for which the IC50 in assay [1] came out at 9.2 µM. Moreover, the outcome in assay [2] was inactive.
Take `N#Cc1ccc(COc2nc(-c3cccc(C#N)c3)ncc2C(=O)O)cc1`: the IC50 in assay [1] amounted to 3.08 µM. For the same molecule, the result in assay [2] was inactive.
Consider `CC(C)Cc1nc(-c2cccc(C#N)c2)n(OCc2ccc(C#N)cc2)c1C(=O)O`, for which, in assay [1], the IC50 worked out at 2.08 µM. Further, the viability at 10 µM in assay [2] worked out at 76.1%.
With `N#Cc1ccc(-c2ncc(C(=O)O)c(Nc3ccccc3C#N)n2)cc1`, the IC50 in assay [1] came to 9.74 µM. In assay [2], the viability at 10 µM was found to be 97.8%.
For `CC(=O)Nc1cccc(Oc2nc(-c3cccc(C#N)c3)ncc2C(=O)O)c1` the same measures were 7.99 µM and 88.2%.
As to `CC(C)c1nc(-c2cccc(C#N)c2)n(OCc2ccc(C#N)cc2)c1C(=O)O`, in assay [1], the IC50 worked out at 1.62 µM. Moreover, in assay [2], the outcome was inactive.
Take `N#Cc1ccc(COn2c(-c3cccc(C#N)c3)nc(C(F)F)c2C(=O)O)cc1`: the IC50 in assay [1] came out at 0.98 µM. Further, the viability at 10 µM in assay [2] is 77.4%.
Take `N#Cc1ccc(COn2c(-c3cccc(C#N)c3)nc(C3CC(F)(F)C3)c2C(=O)O)cc1`: the half-inhibitory concentration (IC50) in assay [1] was 3.11 µM. In assay [2], the outcome was inactive.
For `N#Cc1ccc(Oc2nc(-c3cccc(C#N)c3)ncc2C(=O)O)cc1`, the IC50 in assay [1] is 4.82 µM. For the same molecule, the outcome in assay [2] was inactive.
For `N#Cc1cccc(-c2ncc(C(=O)O)c(Oc3ccn[nH]3)n2)c1` the same measures were over 10 µM and “inactive”.
On to `N#Cc1cccc(-c2nc(C(F)F)c(C(=O)O)n2OCc2ccncc2)c1`, for which, in assay [1], the half-maximal inhibitory concentration (IC50) turned out to be 5.34 µM. In addition, the outcome in assay [2] was inactive.
`N#Cc1ccc(COn2c(-c3cccc(C#N)c3)nc(-c3ccco3)c2C(=O)O)cc1`: the IC50 in assay [1] was over 10 µM. Moreover, in assay [2], the viability at 10 µM was 77.1%.
With `N#Cc1cccc(-c2ncc(C(=O)O)c(Nc3cccnc3)n2)c1`, the IC50 in assay [1] was over 10 µM. Besides, the outcome in assay [2] was inactive.
`N#Cc1ccc(COn2c(-c3cccc(C#N)c3)nc(C3CCC3)c2C(=O)O)cc1`: in assay [1], the IC50 turned out to be 1.43 µM. Also, the outcome in assay [2] was inactive.
Take `N#Cc1ccc(COn2c(-c3cccc(C#N)c3)nc(-c3nccs3)c2C(=O)O)cc1`: the IC50 in assay [1] came out at 4.52 µM. Moreover, in assay [2], the result was inactive.
With `N#Cc1ccc(Oc2nc(-c3ccc(C#N)cc3)ncc2C(=O)O)cc1`, the IC50 in assay [1] was determined as 4.62 µM. Besides, the viability at 10 µM in assay [2] came to 91.3%.
For the molecule `N#Cc1ccc(COn2c(-c3cccc(C#N)c3)nc(-c3ccsc3)c2C(=O)O)cc1`, in assay [1], the IC50 stood at 1.39 µM. Besides, the outcome in assay [2] was inactive.
On to `N#Cc1ccc(COn2c(-c3cccc(C#N)c3)nc(C(F)(F)F)c2C(=O)O)cc1`, for which the IC50 in assay [1] amounted to 1.8 µM. For the same molecule, the viability at 10 µM in assay [2] worked out at 75.6%.
Regarding `N#Cc1ccc(COn2c(-c3cccc(C#N)c3)nc(-c3ccncc3)c2C(=O)O)cc1`, in assay [1], the IC50 is over 10 µM. The outcome in assay [2] was inactive.
The like results for `N#Cc1ccc(COn2c(-c3cccc(C#N)c3)nc(C3CC3)c2C(=O)O)cc1` were, in that order, 2.51 µM and “inactive”.
In the case of `COCc1nc(-c2cccc(C#N)c2)n(OCc2ccc(C#N)cc2)c1C(=O)O`, the IC50 in assay [1] turned out to be 1.62 µM. The outcome in assay [2] was inactive.
Take `N#Cc1ccc(COn2c(-c3cccc(C#N)c3)nc(C3CCCC3)c2C(=O)O)cc1`: the IC50 in assay [1] was determined as 2.53 µM. In addition, in assay [2], the result was inactive.
On to `N#Cc1cccc(-c2nc(C(F)F)c(C(=O)O)n2OCc2ccccn2)c1`, for which the IC50 in assay [1] is over 10 µM. Besides, the viability at 10 µM in assay [2] came to 75.9%.
For `N#Cc1ccc(COn2c(-c3cccc(C#N)c3)nc(-c3cscn3)c2C(=O)O)cc1`, in assay [1], the IC50 was over 10 µM. Also, in assay [2], the outcome was inactive.
In the case of `N#Cc1ccc(-c2ncc(C(=O)O)c(OCc3cccc(C#N)c3)n2)cc1`, the IC50 in assay [1] worked out at 3.01 µM. Moreover, the viability at 10 µM in assay [2] is 81.1%.
Consider `N#Cc1cccc(-c2nc(C(F)F)c(C(=O)O)n2OCc2nccs2)c1`, for which the IC50 in assay [1] came to 2.79 µM. In assay [2], the outcome was inactive.
As for `N#Cc1cccc(-c2nc(C(F)F)c(C(=O)O)n2OCc2cscn2)c1`, in assay [1], the IC50 was determined as 1.98 µM. Moreover, the viability at 10 µM in assay [2] came to 86.8%.
